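Dose response: 5 concentrations. Exposure: 48 h. Format: 96-well plates. Endpoint: linear interpolation; highest concentration if not reached. GI50 is the concentration that inhibits growth by half.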 Active and inactive are the calls of the source. Rule as the data show it: active = GI50 up to about 1.1 µM and inactive = higher.
Legend:
Assay in all cases: NCI-60 cell line screen, 48 h
A549 = test system: A549
COLO 205 = test system: COLO 205
HCC 2998 = test system: HCC 2998
HL-60 = test system: HL-60
HOP-92 = test system: HOP-92
HT-29 = test system: HT-29
KM12 = test system: KM12
MOLT-4 = test system: MOLT-4
NCI-H226 = test system: NCI-H226
NCI-H460 = test system: NCI-H460
OVCAR-3 = test system: OVCAR-3
OVCAR-4 = test system: OVCAR-4
RXF 393 = test system: RXF 393
SF-295 = test system: SF-295
SK-MEL-2 = test system: SK-MEL-2
SW-620 = test system: SW-620
UACC-62 = test system: UACC-62
UO-31 = test system: UO-31
A498 = test system: A498

Measured: GI50

COc1ccc(/C(=N\NC(=O)C(N)=O)C(c2ccc(OC)cc2)C2(O)C(=O)Nc3c(Cl)cccc32)cc1 (stereo not given)
inactive: A549 > 100 µM | COLO 205 > 100 µM | HCC 2998 > 100 µM | HL-60 26.9 µM | HOP-92 > 100 µM | HT-29 > 100 µM | KM12 > 100 µM | MOLT-4 82.4 µM | NCI-H226 > 100 µM | NCI-H460 > 100 µM | OVCAR-3 > 100 µM | OVCAR-4 > 100 µM | RXF 393 > 100 µM | SF-295 > 100 µM | SK-MEL-2 > 100 µM | SW-620 > 100 µM | UACC-62 > 100 µM | UO-31 > 100 µM

CC1=CP(=O)(OC(C)C)C=C(C)C1=C(Cl)Cl (stereo not given)
inactive: A549 26.4 µM | COLO 205 18.2 µM | HCC 2998 > 100 µM | HL-60 34.9 µM | HOP-92 16.9 µM | HT-29 45.6 µM | KM12 22.5 µM | MOLT-4 57.4 µM | NCI-H226 26.2 µM | NCI-H460 68.2 µM | OVCAR-3 > 100 µM | OVCAR-4 > 100 µM | RXF 393 66.2 µM | SF-295 45.2 µM | SK-MEL-2 20.3 µM | SW-620 44 µM | UACC-62 32.6 µM | UO-31 13.1 µM

C/C(=C(/C)c1cc[n+](C)cc1)c1cc[n+](C)cc1
inactive: A498 > 75 µM | A549 > 75 µM | COLO 205 27.2 µM | HL-60 > 75 µM | HOP-92 > 75 µM | HT-29 > 75 µM | KM12 > 75 µM | MOLT-4 > 75 µM | NCI-H460 > 75 µM | OVCAR-3 9.12 µM | OVCAR-4 69.8 µM | RXF 393 > 75 µM | SF-295 > 75 µM | SK-MEL-2 > 75 µM | UACC-62 > 75 µM | UO-31 > 75 µM

CC1CC(=O)NC2CC1C2(C)C (stereo not given)
inactive: A549 > 100 µM | COLO 205 > 100 µM | HCC 2998 > 100 µM | HL-60 > 100 µM | HOP-92 > 100 µM | HT-29 > 100 µM | KM12 > 100 µM | MOLT-4 > 100 µM | NCI-H226 > 100 µM | NCI-H460 > 100 µM | OVCAR-3 > 100 µM | OVCAR-4 > 100 µM | RXF 393 > 100 µM | SF-295 > 100 µM | SK-MEL-2 > 100 µM | SW-620 > 100 µM | UACC-62 > 100 µM | UO-31 > 100 µM

Source: ChEMBL document CHEMBL1201862, “PubChem BioAssay data set” (2004)
